Data published in ChEMBL document CHEMBL1148120, “New cytotoxic 6,7-cis and 6,7-trans configured guaianolides from Warionia saharae” (J Nat Prod, 2002).
In brackets after ≈: the same amount, converted by molar mass.

System: KB
Assay: Cytotoxicity against human KB cells
Format: functional, cell-based

## C=C1C(=O)O[C@H]2[C@H]1CC=C(C)[C@]1(O)C[C@H]3O[C@@]3(C)[C@H]21
  IC50: 1.7 µg/mL (≈ 6.48 µM)

## C=C1C(=O)O[C@H]2[C@H]1CCC(=C)[C@]1(O)C[C@H]3O[C@@]3(C)[C@H]21
  IC50: 2 µg/mL (≈ 7.62 µM)

## C=C1C(=O)O[C@@H]2[C@H]1CCC(C)=C1[C@H]3O[C@](C)([C@H]3OC(=O)C(C)CC)[C@@H]12 (stereo partly drawn) [3BETA-O-(2-METHYLBUTYRYL)MOROCCOLIDE A]
  IC50: 1 µg/mL (≈ 2.89 µM)

## C=C1C(=O)O[C@@H]2[C@H]1CCC(C)=C1[C@H]3O[C@](C)([C@H]3O)[C@@H]12 [MOROCCOLIDE A]
  IC50: 4.5 µg/mL (≈ 17.2 µM)

## C=C1C(=O)O[C@H]2[C@@H]3[C@@](O)(C(C)=CC[C@@H]12)[C@@H]1C[C@@]3(C)O1 [SAHARANOLIDE A]
  IC50: 3.3 µg/mL (≈ 12.6 µM)

## C=C1C(=O)O[C@H]2[C@@H]3[C@@](O)(C(=C)CC[C@@H]12)[C@@H]1C[C@@]3(C)O1 [SAHARANOLIDE B]
  IC50: 5.5 µg/mL (≈ 21 µM)
